Results taken from US20150219624A1, “METHODS FOR IDENTIFYING ANTI-CANCER COMPOUNDS” (MEMORIAL SLOAN KETTERING CANCER CENTER, priority 2013, published 2015).
“And” between values parts separate entries of the source, which are not always exact repeats. Identical values can stand only once.

Assay: In vivo toxicity studies (body and organ weights, hematology, clinical chemistry, histopathology)
Procedure: Toxicity studies. Eight week-old C57Bl/6NTac female mice were randomly assigned to either control or treatment groups. Each treatment group received one daily dose of test article through i.p. injection over 5 consecutive days. Toxicity was monitored by weight loss and daily clinical observation for the 14 days following test article administration. 24 hours after the last test article administration 4 mice in each group were sacrificed and clinical chemistry, hematology and tissue specific histopathology were done at autopsy. The remaining mice (n=2 per group) were kept under observation for an additional 13 days; at that point all mice were sacrificed and clinical chemistry, hematology and tissue specific histopathology were done at time of autopsy.
D) KOPT-K1 xenograft studies.

[1] = 0.2 mg/kg, female, Day 5, individual animals
[2] = 0.2 mg/kg, female, Day 19, % change of mean vs vehicle
[3] = 0.2 mg/kg, female, Day 19, group mean
[4] = 0.2 mg/kg, female, Day 19, individual animals
[5] = bone marrow cytology, count of 300 total cells, individual animals Treatment #7-#10
[6] = bone marrow cytology, individual animals Treatment #7-#10
[7] = spleen cytology, individual animals Treatment #7-#10
[8] = therapeutic doses (0.2 mg/kg i.p.)

Substance: (±)-CR-31-B
- NEUT [1]: 1.05 K/uL and 1.69 K/uL and 1.40 K/uL and 1.70 K/uL
- NEUT % [1]: 21.94% and 24.51% and 28.20% and 24.44%
- Na [1]: 152 mEq/L and 147 mEq/L (2×) and 150 mEq/L
- PLT [1]: 872 K/uL and 673 K/uL and 676 K/uL and 682 K/uL
- RBC [1]: 9.31 M/uL and 8.95 M/uL and 8.69 M/uL and 8.89 M/uL
- RDW % [1]: 15.6% and 16.1% and 15.2% and 16.4%
- Right Kidney [1]: 0.119 gm and 0.125 gm (2×) and 0.135 gm and 0.75 % body wt and 0.73 % body wt and 0.77 % body wt and 0.78 % body wt
- Spleen [1]: 0.049 gm and 0.070 gm and 0.086 gm and 0.064 gm and 0.31 % body wt and 0.41 % body wt and 0.49 % body wt and 0.40 % body wt
- TBIL [1]: 0.2 mg/d L (3×) and 0.1 mg/d L
- TP [1]: 5.1 g/dL and 4.8 g/dL (2×) and 4.9 g/dL
- WBC [1]: 4.78 K/uL and 6.90 K/uL and 4.98 K/uL and 6.96 K/uL
- BASO % % ChVh [2]: 27.3%
- BASO (K/uL) % ChVh [2]: −100.0%
- Body Weight % ChVh [2]: 3.6%
- EOS % % ChVh [2]: 5.5%
- EOS (K/uL) % ChVh [2]: −50.0%
- HCT % % ChVh [2]: 0.2%
- HGB % ChVh [2]: −5.0%
- LYM % % ChVh [2]: −0.1%
- LYM (K/uL) % ChVh [2]: −58.8%
- Left Kidney (% body wt) % ChVh [2]: −9.1%
- Left Kidney (gm) % ChVh [2]: −11.8%
- Liver (% body wt) % ChVh [2]: 4.1%
- Liver (gm) % ChVh [2]: 7.9%
- MCH % ChVh [2]: -4.5%
- MCHC % ChVh [2]: -5.4%
- MCV % ChVh [2]: 0.4%
- MONO % % ChVh [2]: −34.0%
- MONO (K/uL) % ChVh [2]: −70.0%
- MPV % ChVh [2]: 4.3%
- NEUT % % ChVh [2]: 3.7%
- NEUT (K/uL) % ChVh [2]: −56.3%
- PLT % ChVh [2]: 10.5%
- RBC % ChVh [2]: −0.2%
- RDW % % ChVh [2]: 0.6%
- Right Kidney (% body wt) % ChVh [2]: −6.3%
- Right Kidney (gm) % ChVh [2]: −3.6%
- Spleen (% body wt) % ChVh [2]: 0.0%
- Spleen (gm) % ChVh [2]: 3.2%
- WBC % ChVh [2]: −58.5%
- BASO [3]: 0.00 K/uL
- BASO % [3]: 0.14%
- Body Weight [3]: 17.981 gm
- EOS [3]: 0.02 K/uL
- EOS % [3]: 0.58%
- HCT % [3]: 44.2%
- HGB [3]: 13.2 g/dL
- LYM [3]: 2.46 K/uL
- LYM % [3]: 84.19%
- MCH [3]: 14.7 pg
- MCHC [3]: 29.9 g/dL
- MCV [3]: 49.0 fL
- MONO [3]: 0.03 K/uL
- MONO % [3]: 0.93%
- MPV [3]: 4.8 fL
- NEUT [3]: 0.42 K/uL
- NEUT % [3]: 14.16%
- PLT [3]: 1196.5 K/uL
- RBC [3]: 9.02 M/uL
- RDW % [3]: 16.3%
- WBC [3]: 2.93 K/uL
- 2D. Individual chemistry, column 2 (head not shown; probably ALP) [4]: 144 and 160
- 2D. Individual chemistry, column 3 (head not shown; probably ALT) [4]: 20 and 22
- 2D. Individual chemistry, column 4 (head not shown; probably AST) [4]: 33 and 38
- 2D. Individual chemistry, column 5 (head not shown; probably GGT) [4]: 0
- 2D. Individual chemistry, column 6 (head not shown; probably albumin) [4]: 2.9
- 2D. Individual chemistry, column 7 (head not shown; probably total protein) [4]: 4.7
- 2D. Individual chemistry, column 8 (head not shown; probably globulin) [4]: 1.8
- 2D. Individual chemistry, column 10 (head not shown; probably total bilirubin) [4]: 0.1
- 2D. Individual chemistry, column 11 (head not shown; probably BUN) [4]: 29 and 35
- 2D. Individual chemistry, column 12 (head not shown; probably creatinine) [4]: 0.2
- BASO [4]: 0.00 K/uL
- BASO % [4]: 0.14% and 0.13%
- Body Weight [4]: 18.769 gm and 17.192 gm
- CHOL [4]: 71 mg/dL and 59 mg/dL
- Ca [4]: 9.0 mg/dL and 9.4 mg/dL
- Cl [4]: 112 mEq/L and 117 mEq/L
- EOS [4]: 0.02 K/uL
- EOS % [4]: 0.50% and 0.66%
- GLUC [4]: 254 mg/dL and 227 mg/dL
- HCT % [4]: 45.9% and 42.5%
- HGB [4]: 13.4 g/dL and 13.0 g/dL
- K [4]: 3.5 mEq/L and 4.0 mEq/L
- LYM [4]: 2.80 K/uL and 2.12 K/uL
- LYM % [4]: 83.42% and 84.96%
- Left Kidney [4]: 0.111 gm and 0.113 gm and 0.73 % body wt and 0.66 % body wt
- Liver [4]: 1.111 gm and 0.988 gm and 5.92 % body wt and 5.75 % body wt
- MCH [4]: 14.4 pg and 14.9 pg
- MCHC [4]: 29.2 g/dL and 30.6 g/dL
- MCV [4]: 49.2 fL and 48.8 fL
- MONO [4]: 0.03 K/uL and 0.02 K/uL
- MONO % [4]: 0.91% and 0.95%
- MPV [4]: 4.6 fL and 4.9 fL
- NEUT [4]: 0.51 K/uL and 0.33 K/uL
- NEUT % [4]: 15.03% and 13.29%
- Na [4]: 147 mEq/L and 149 mEq/L
- PLT [4]: 990 K/uL and 1403 K/uL
- RBC [4]: 9.33 M/uL and 8.70 M/uL
- RDW % [4]: 16.4% and 16.2%
- Right Kidney [4]: 0.137 gm and 0.127 gm and 0.73 % body wt and 0.74 % body wt
- Spleen [4]: 0.081 gm and 0.048 gm and 0.43 % body wt and 0.28 % body wt
- WBC [4]: 3.36 K/uL and 2.50 K/uL
- Lymph [5]: 64 and 60 and 61 and 44
- Mast [5]: 0
- Mat ery [5]: 56 and 62 and 45 and 38
- Mat myel [5]: 122 (2×) and 88 (2×) and 120 (2×) and 121 (2×)
- Plasma [5]: 0
- Pro myel [5]: 34 and 64 and 52 and 72
- Prol ery [5]: 24 and 26 and 22 and 25
- Total Ery [5]: 80 and 88 and 67 and 63
- Total myel [5]: 156 and 152 and 172 and 193
- % Lymph [6]: 21.3% and 20.0% and 20.3% and 14.7%
- % Mast [6]: 0.0%
- % Mat ery [6]: 18.7% and 20.7% and 15.0% and 12.7%
- % Plasma [6]: 0.0%
- % Pro ery [6]: 8.0% and 8.7% and 7.3% and 8.3%
- % Pro myel [6]: 11.3% and 21.3% and 17.3% and 24.0%
- % T ery [6]: 26.7% and 29.3% and 22.3% and 21.0%
- % T myel [6]: 52.0% and 50.7% and 57.3% and 64.3%
- % mat myel [6]: 40.7% and 29.3% and 40.0% and 40.3%
- M:E [6]: 2.0 and 1.7 and 2.6 and 3.1
- intestinal histology (during and after treatment): No changes
- % Erythroid [7]: 0% (3×) and 1%
- % Lymph [7]: 94% (2×) and 90% (4×) and 86% (2×)
- % Macrophage [7]: 2% (3×) and 0%
- % Mesenchymal [7]: 0% (3×) and 2%
- % Myeloid [7]: 4% and 7% and 9% and 10%
- % Plasma [7]: 0% (3×) and 1%
- other blood counts, bone marrow cytology, serum chemistry [8]: no other changes
- white cell count [8]: reversible drop in white cell count with a nadir on day 19
